Consider 16 compounds from ChEMBL document CHEMBL5370559, “Plasmodium-Resistant Indole Diterpenoid Biosynthesis Gene Cluster Derived from Aspergillus oryzae Was Activated by Exogenous P450 Gene Ast B” (J Nat Prod, 2023).

Experiment [1] deals with Plasmodium falciparum. Nature of the experiment: Antiplasmodial activity against erythrocytic stage chloroquine sensitive Plasmodium falciparum 3D7 assessed as parasitic growth inhibition measured after 3 days by HRP2-ELISA assay. Conditions: 3D7, 72 h. The class given is functional, organism-based. A general note: ELISA stands for enzyme-linked immunosorbent assay.
In experiment [2] the test system is Plasmodium falciparum. Briefly: Antiplasmodial activity against erythrocytic stage chloroquine resistant Plasmodium falciparum dD2 assessed as parasitic growth inhibition measured after 3 days by HRP2-ELISA assay. The class given is functional, organism-based. Conditions: dD2, 72 h.

In the case of `C=CC(C)(C)c1ccc2[nH]c3c(c2c1)C[C@@H]1CC[C@H]2C4=CC(=O)[C@@H](C(C)(C)O)O[C@H]4CC[C@]2(C)[C@@]31C`, the IC50 (usually the point on the concentration scale where inhibition reaches its midpoint) with Plasmodium falciparum [1] was 1.3 µM; in the experiment on Plasmodium falciparum [2], 96 µM.
Consider `CC(C)C1=C(c2c[nH]c3ccccc23)[C@@H]2[C@H](C)C[C@@H](O)[C@@]3(C)[C@H](C)CC[C@@H](O)[C@@]23CC1`, for which, in the experiment on Plasmodium falciparum [1], the IC50 is 52 µM.
Turning to `CC(C)(O)[C@H]1O[C@H]2CC[C@@]3(C)[C@@H](CC[C@H]4Cc5c([nH]c6ccccc56)[C@@]43C)C2=CC1=O` [DEHYDROXYPAXILLINE], the IC50 in the experiment on Plasmodium falciparum [1] was determined as 0.9 µM; in the experiment with Plasmodium falciparum [2] it was 69 µM.
Regarding `Cc1cc2[nH]c3ccccc3c2c2c1CC[C@@]13[C@H](O)CC[C@@H](C)[C@]1(C)[C@H](O)C[C@@H](C)[C@@H]23`, the IC50 in the experiment on Plasmodium falciparum [1] was 49 µM.
On the same count and under the same terms, the value for `C[C@@H]1CC[C@@]2(C)[C@H](C)CC[C@@H](O)[C@]23CC[C@@H](C(C)(C)O)[C@H](c2c[nH]c4ccccc24)[C@H]13` was greater than 200 µM.
Regarding `C[C@@H]1CC[C@H]2[C@@H](C)C(=O)O[C@@H]3O[C@@]4(C)CC[C@@H]1[C@]32OO4` [ARTEMISININ], the IC50 in the experiment with Plasmodium falciparum [1] came out at 0.013 µM; with Plasmodium falciparum [2], 12 µM.
Take `CC(C)C1=CC[C@]23[C@@H]([C@H](C)CC[C@@]2(C)[C@H](C)CC[C@H]3O)[C@H]1c1c[nH]c2ccccc12`: in the experiment with Plasmodium falciparum [1], the IC50 came out at 31 µM.
On the same count and under the same terms, the value for `C=CC(C)(C)c1cccc2[nH]c3c(c12)C[C@@H]1CC[C@@]2(O)C4=CC(=O)[C@@H]5O[C@@]4(CC[C@]2(C)[C@@]31C)OC5(C)C` [AFLATREME] was greater than 200 µM; that for `C[C@H](CO)C1=C(c2c[nH]c3ccccc23)[C@@H]2[C@H](C)C[C@@H](O)[C@@]3(C)[C@H](C)CC[C@@H](O)[C@@]23CC1` was 26 µM.
Consider `CC(C)(O)[C@@H]1CC[C@]2(C)[C@H](CC[C@@]3(C)[C@H]2CC[C@H]2Cc4c([nH]c5ccccc45)[C@@]23C)O1` [PASPALINE], for which the IC50 in the experiment on Plasmodium falciparum [1] is 2.2 µM; in the experiment with Plasmodium falciparum [2], greater than 200 µM.
For `C=CC(C)(C)c1cccc2[nH]c3c(c12)C[C@@H]1CC[C@H]2C4=CC(=O)[C@@H](C(C)(C)O)O[C@H]4CC[C@]2(C)[C@@]31C`, in that order: 0.84 µM and 41 µM.
With `CC(C)=CCC[C@]1(C)[C@@H](O)CC[C@@]2(C)[C@H]1CC[C@H]1Cc3c([nH]c4ccccc34)[C@@]12C` [EMINDOLE SB], the 50% inhibitory concentration (IC50) turned out to be 2.9 µM in the experiment on Plasmodium falciparum [1] and 34 µM in the experiment with Plasmodium falciparum [2].
The matching figures for `CC(C)(O)[C@H]1O[C@@]2(O)CC[C@@]3(C)[C@@H](CC[C@H]4Cc5c([nH]c6ccccc56)[C@@]43C)C2=CC1=O`: 1.1 µM and 153 µM.
The matching figures for `CC(C)C1=C(c2c[nH]c3ccccc23)[C@@H]2[C@H](C)CC[C@@]3(C)[C@H](C)CC[C@@H](O)[C@@]23CC1`: 2.8 µM and greater than 200 µM.
With `C=CC(C)(C)c1cccc2[nH]c3c(c12)C[C@@H]1CC(=O)[C@@]2(O)C4=CC(=O)[C@@H](C(C)(C)O)O[C@]4(O)CC[C@]2(C)[C@@]31C`, the IC50 in the experiment with Plasmodium falciparum [1] was determined as 57 µM.
Still for that read-out and setting: with `CC1=CC[C@@H](O)[C@@]23CC=C(C(C)C)[C@H](c4c[nH]c5ccccc45)[C@@H]2[C@H](C)CC[C@@]13C` the figure was 20 µM.
